According to ChEMBL document CHEMBL3885861, “Open TG-GATES”:

Species: Rattus norvegicus
Experiment: Open TG-GATES - Regimen: Daily Repeat
Format: toxicity, organism-based, Sprague-Dawley
Parameters: regimen Daily Repeat, gender Male, age 6 weeks
Conditions: in vivo, po, 50 mg/kg, route gavage, dose level Middle; for APTT / Bas / Eos / Fbg / Hb / Ht / Lym / MCH / MCHC / MCV / Mono / Neu / PT / Plat / RBC / Ret / WBC: tissue Blood; for KIDNEY_L / KIDNEY_R / KIDNEY_TOTAL: tissue Kidney; for LIVER: tissue Liver; for A/G / ALP / ALT / AST / BUN / CRE / Ca / Cl / DBIL / GLC / IP / K / LDH / Na / PL / RALB / TBIL / TC / TG / TP / gamma-GTP: tissue Plasma

In the case of `Nc1nc(N)c2nc(-c3ccccc3)c(N)nc2n1`, the TERMINAL_BW (72 h, time 3 day) is reported as 241.1 g, the APTT (72 h, time 3 day) is reported as 15.9 s and the Bas (72 h, time 3 day) is reported as 0%. It also gave an Eos (72 h, time 3 day) of 1%, a Fbg (72 h, time 3 day) of 334.2 mg/dL and a Hb (72 h, time 3 day) of 13.9 g/dL. For the same compound, the Ht (72 h, time 3 day) was 40.9%, the Lym (72 h, time 3 day) was 74.4% and the MCH (72 h, time 3 day) was 21.2 pg. The MCHC (72 h, time 3 day) was 34.2%, the MCV (72 h, time 3 day) was 62.1 fL and the Mono (72 h, time 3 day) was 2.8%. For the same compound, the Neu (72 h, time 3 day) was 21.4%, the PT (72 h, time 3 day) was 13.8 s and the Plat (72 h, time 3 day) was 119.3 x10_4/uL. It also gave an RBC (72 h, time 3 day) of 658 x10_4/ul, a Ret (72 h, time 3 day) of 5.6% and a WBC (72 h, time 3 day) of 93.5 x10_2/uL. The KIDNEY_L (72 h, time 3 day) was 1.1 g, the KIDNEY_R (72 h, time 3 day) was 1.1 g and the KIDNEY_TOTAL (72 h, time 3 day) was 2.2 g. The LIVER (72 h, time 3 day) was 11.5 g, the A/G (72 h, time 3 day) was 0.9 and the ALP (72 h, time 3 day) was 1521.8 IU/L. For the same compound, the ALT (72 h, time 3 day) was 42.2 IU/L, the AST (72 h, time 3 day) was 65.2 IU/L and the BUN (72 h, time 3 day) was 15.2 mg/dL. It also gave a CRE (72 h, time 3 day) of 0.2 mg/dL, a Ca (72 h, time 3 day) of 10.9 mg/dL and a Cl (72 h, time 3 day) of 105.4 meq/L. The DBIL (72 h, time 3 day) was 0.008 mg/dL, the GLC (72 h, time 3 day) was 175 mg/dL and the IP (72 h, time 3 day) was 8.2 mg/dL. For the same compound, the K (72 h, time 3 day) was 3.9 meq/L, the LDH (72 h, time 3 day) was 56.2 IU/L and the Na (72 h, time 3 day) was 143.6 meq/L. The PL (72 h, time 3 day) was 166.2 mg/dL, the RALB (72 h, time 3 day) was 2.6 g/dL and the TBIL (72 h, time 3 day) was 0.04 mg/dL. For the same compound, the TC (72 h, time 3 day) was 85 mg/dL, the TG (72 h, time 3 day) was 126.2 mg/dL and the TP (72 h, time 3 day) was 5.5 g/dL. It also gave a gamma-GTP (72 h, time 3 day) of 1 IU/L, a TERMINAL_BW ([…], time 7 day) of 280.2 g and a TERMINAL_BW ([…], time 14 day) of 333.9 g. For the same compound, the TERMINAL_BW ([…], time 28 day) was 402.9 g, the APTT ([…], time 7 day) was 16.3 s and the Bas ([…], time 7 day) was 0%. For the same compound, the Eos ([…], time 7 day) was 1%, the Fbg ([…], time 7 day) was 335.4 mg/dL and the Hb ([…], time 7 day) was 13.8 g/dL. It also gave a Ht ([…], time 7 day) of 42.3%, a Lym ([…], time 7 day) of 77.8% and an MCH ([…], time 7 day) of 20.2 pg. It also gave an MCHC ([…], time 7 day) of 32.6%, an MCV ([…], time 7 day) of 62.1 fL and a Mono ([…], time 7 day) of 2%. For the same compound, the Neu ([…], time 7 day) was 18.6%, the PT ([…], time 7 day) was 13.9 s and the Plat ([…], time 7 day) was 134.1 x10_4/uL. The RBC ([…], time 7 day) was 680.6 x10_4/ul, the Ret ([…], time 7 day) was 5.3% and the WBC ([…], time 7 day) was 121.8 x10_2/uL. It also gave an APTT ([…], time 14 day) of 18.2 s, a Bas ([…], time 14 day) of 0.2% and an Eos ([…], time 14 day) of 1%. For the same compound, the Fbg ([…], time 14 day) was 312.2 mg/dL, the Hb ([…], time 14 day) was 14.5 g/dL and the Ht ([…], time 14 day) was 44.6%. It also gave a Lym ([…], time 14 day) of 80.6%, an MCH ([…], time 14 day) of 19.6 pg and an MCHC ([…], time 14 day) of 32.6%. The MCV ([…], time 14 day) was 59.9 fL, the Mono ([…], time 14 day) was 2.6% and the Neu ([…], time 14 day) was 15.4%. For the same compound, the PT ([…], time 14 day) was 12.9 s, the Plat ([…], time 14 day) was 127.2 x10_4/uL and the RBC ([…], time 14 day) was 744.2 x10_4/ul. It also gave a Ret ([…], time 14 day) of 4.2%, a WBC ([…], time 14 day) of 93 x10_2/uL and an APTT ([…], time 28 day) of 18.2 s. It also gave a Bas ([…], time 28 day) of 0.4%, an Eos ([…], time 28 day) of 1.4% and a Fbg ([…], time 28 day) of 283.2 mg/dL. The Hb ([…], time 28 day) was 15.4 g/dL, the Ht ([…], time 28 day) was 45.4% and the Lym ([…], time 28 day) was 80%. The MCH ([…], time 28 day) was 19.1 pg, the MCHC ([…], time 28 day) was 33.9% and the MCV ([…], time 28 day) was 56.2 fL. It also gave a Mono ([…], time 28 day) of 1.6%, a Neu ([…], time 28 day) of 16.2% and a PT ([…], time 28 day) of 13.5 s. The Plat ([…], time 28 day) was 105.5 x10_4/uL, the RBC ([…], time 28 day) was 807 x10_4/ul and the Ret ([…], time 28 day) was 2.4%. The WBC ([…], time 28 day) was 101.1 x10_2/uL, the KIDNEY_L ([…], time 7 day) was 1.2 g and the KIDNEY_R ([…], time 7 day) was 1.2 g. It also gave a KIDNEY_TOTAL ([…], time 7 day) of 2.4 g, a KIDNEY_L ([…], time 14 day) of 1.3 g and a KIDNEY_R ([…], time 14 day) of 1.3 g. The KIDNEY_TOTAL ([…], time 14 day) was 2.6 g, the KIDNEY_L ([…], time 28 day) was 1.4 g and the KIDNEY_R ([…], time 28 day) was 1.4 g. The KIDNEY_TOTAL ([…], time 28 day) was 2.8 g, the LIVER ([…], time 7 day) was 12.7 g and the LIVER ([…], time 14 day) was 14.7 g. The LIVER ([…], time 28 day) was 15.8 g, the A/G ([…], time 7 day) was 0.9 and the ALP ([…], time 7 day) was 1449.6 IU/L. It also gave an ALT ([…], time 7 day) of 46.8 IU/L, an AST ([…], time 7 day) of 66.6 IU/L and a BUN ([…], time 7 day) of 17.6 mg/dL. It also gave a CRE ([…], time 7 day) of 0.2 mg/dL, a Ca ([…], time 7 day) of 11 mg/dL and a Cl ([…], time 7 day) of 106 meq/L. For the same compound, the DBIL ([…], time 7 day) was 0.012 mg/dL, the GLC ([…], time 7 day) was 179 mg/dL and the IP ([…], time 7 day) was 7.7 mg/dL. For the same compound, the K ([…], time 7 day) was 4.3 meq/L, the LDH ([…], time 7 day) was 60 IU/L and the Na ([…], time 7 day) was 142.4 meq/L. The PL ([…], time 7 day) was 154.6 mg/dL, the RALB ([…], time 7 day) was 2.6 g/dL and the TBIL ([…], time 7 day) was 0.07 mg/dL. It also gave a TC ([…], time 7 day) of 77.2 mg/dL, a TG ([…], time 7 day) of 128.2 mg/dL and a TP ([…], time 7 day) of 5.5 g/dL. For the same compound, the gamma-GTP ([…], time 7 day) was 1.2 IU/L, the A/G ([…], time 14 day) was 0.9 and the ALP ([…], time 14 day) was 1311.6 IU/L. The ALT ([…], time 14 day) was 43.2 IU/L, the AST ([…], time 14 day) was 64.2 IU/L and the BUN ([…], time 14 day) was 18 mg/dL. It also gave a CRE ([…], time 14 day) of 0.2 mg/dL, a Ca ([…], time 14 day) of 10.6 mg/dL and a Cl ([…], time 14 day) of 104.8 meq/L. The DBIL ([…], time 14 day) was 0.014 mg/dL, the GLC ([…], time 14 day) was 191.8 mg/dL and the IP ([…], time 14 day) was 8.1 mg/dL. The K ([…], time 14 day) was 3.7 meq/L, the LDH ([…], time 14 day) was 69.6 IU/L and the Na ([…], time 14 day) was 144.4 meq/L. For the same compound, the PL ([…], time 14 day) was 149.2 mg/dL, the RALB ([…], time 14 day) was 2.7 g/dL and the TBIL ([…], time 14 day) was 0.07 mg/dL. For the same compound, the TC ([…], time 14 day) was 70.2 mg/dL, the TG ([…], time 14 day) was 137 mg/dL and the TP ([…], time 14 day) was 5.9 g/dL. For the same compound, the gamma-GTP ([…], time 14 day) was 1 IU/L, the A/G ([…], time 28 day) was 0.8 and the ALP ([…], time 28 day) was 1251 IU/L. For the same compound, the ALT ([…], time 28 day) was 39.2 IU/L, the AST ([…], time 28 day) was 62.4 IU/L and the BUN ([…], time 28 day) was 17.6 mg/dL. It also gave a CRE ([…], time 28 day) of 0.2 mg/dL, a Ca ([…], time 28 day) of 10.7 mg/dL and a Cl ([…], time 28 day) of 104.2 meq/L. The DBIL ([…], time 28 day) was 0.014 mg/dL, the GLC ([…], time 28 day) was 188.2 mg/dL and the IP ([…], time 28 day) was 6.7 mg/dL. For the same compound, the K ([…], time 28 day) was 3.8 meq/L, the LDH ([…], time 28 day) was 52.6 IU/L and the Na ([…], time 28 day) was 143.6 meq/L. It also gave a PL ([…], time 28 day) of 139.2 mg/dL, an RALB ([…], time 28 day) of 2.7 g/dL and a TBIL ([…], time 28 day) of 0.06 mg/dL. The TC ([…], time 28 day) was 64.6 mg/dL, the TG ([…], time 28 day) was 154 mg/dL and the TP ([…], time 28 day) was 6.1 g/dL. It also gave a gamma-GTP ([…], time 28 day) of 1 IU/L.
